In ChEMBL document CHEMBL3885881, “DrugMatrix”:
Values joined by “and” are separate entries in the source; they are usually repeats but may differ in a detail not shown here. Equal entries are not always repeated.

Organism: Rattus norvegicus
Test: DrugMatrix - Regimen: Daily Repeat
Format: toxicity, organism-based, Sprague-Dawley
Parameters: regimen Daily Repeat, gender Male, age 6-8 weeks
Conditions: in vivo, sc, route mini-PUMP - SUBCUTANEOUS, vehicle 100 % SALINE; for ABSOLUTE MONOCYTE / ABSOLUTE SEGMENTED NEUTROPHIL / BASOPHIL / EOSINOPHIL / ERYTHROCYTE COUNT / HEMATOCRIT / HEMOGLOBIN / LEUKOCYTE COUNT / MEAN CORPUSCULAR HEMOGLOBIN / MEAN CORPUSCULAR HEMOGLOBIN CONCENTRATION / MEAN CORPUSCULAR VOLUME / MONOCYTE / NEUTROPHIL / NUCLEATED RED BLOOD CELLS / PLATELET COUNT / ABSOLUTE BASOPHIL / ABSOLUTE EOSINOPHIL / ABSOLUTE LYMPHOCYTE: tissue Blood; for ALBUMIN / ALKALINE PHOSPHATASE / ASPARTATE AMINOTRANSFERASE / BLOOD UREA NITROGEN / CARBON DIOXIDE / CHOLESTEROL / CREATINE PHOSPHOKINASE / CREATININE / GLUCOSE / LACTATE DEHYDROGENASE / PHOSPHORUS / POTASSIUM / SODIUM / TOTAL BILIRUBIN / URIC ACID: tissue Plasma
[1] = 0 mg/kg, 72 h, dose level Control, time 3 day
[2] = 0 mg/kg, 120 h, dose level Control, time 5 day
[3] = 0 mg/kg, […], dose level Control, time 14 day
[4] = 0.5 mg/kg, 72 h, dose level High, time 3 day
[5] = 0.5 mg/kg, 120 h, dose level High, time 5 day
[6] = 0.5 mg/kg, […], dose level High, time 14 day

CC[C@H](C)[C@H](NC(=O)[C@H](Cc1ccc(O)cc1)NC(=O)[C@@H](NC(=O)[C@H](CCCNC(=N)N)NC(=O)[C@@H](N)CC(=O)O)C(C)C)C(=O)N[C@@H](Cc1cnc[nH]1)C(=O)N1CCC[C@H]1C(=O)N[C@@H](Cc1ccccc1)C(=O)O [ANGIOTENSIN II]
ABSOLUTE MONOCYTE [1]: 230 cells/µL and 354 CELLS/uL | ABSOLUTE SEGMENTED NEUTROPHIL [1]: 1658.33 CELLS/uL | BASOPHIL [1]: 0.3% and 0% | EOSINOPHIL [1]: 0.43% and 0.5% | ERYTHROCYTE COUNT [1]: 6.91 x10E6/uL and 6.27 x10E6/uL | HEMATOCRIT [1]: 45.43% and 36.95% | HEMOGLOBIN [1]: 14.37 G/DL and 13.4 G/DL | LEUKOCYTE COUNT [1]: 12.09 x10E3/uL and 16.38 x10E3/uL | MEAN CORPUSCULAR HEMOGLOBIN [1]: 20.8 pg and 21.42 pg | MEAN CORPUSCULAR HEMOGLOBIN CONCENTRATION [1]: 31.67 G/DL and 36.27 G/DL | MEAN CORPUSCULAR VOLUME [1]: 65.83 fL and 59.03 fL | MONOCYTE [1]: 1.83% and 2% | NEUTROPHIL [1]: 15.07% and 10.33% | NUCLEATED RED BLOOD CELLS [1]: 0 /100WBC | PLATELET COUNT [1]: 1299.67 x10E3/uL and 904.67 x10E3/uL | ALBUMIN [1]: 3.83 G/DL and 3.82 G/DL | ALKALINE PHOSPHATASE [1]: 333.67 u/L and 282.33 u/L | ASPARTATE AMINOTRANSFERASE [1]: 68 u/L and 86.83 u/L | BLOOD UREA NITROGEN [1]: 19.33 mg/dL and 20.17 mg/dL | CARBON DIOXIDE [1]: 43 mmol/L and 34.67 mmol/L | CHOLESTEROL [1]: 84.33 mg/dL and 71.5 mg/dL | CREATINE PHOSPHOKINASE [1]: 334.33 u/L | CREATININE [1]: 0.53 mg/dL and 0.2 mg/dL | GLUCOSE [1]: 156.67 mg/dL and 136.83 mg/dL | LACTATE DEHYDROGENASE [1]: 159 u/L | PHOSPHORUS [1]: 9.8 mg/dL and 10.12 mg/dL | POTASSIUM [1]: 5.93 MEQ/L and 5.92 MEQ/L | SODIUM [1]: 146.33 MEQ/L and 147.8 MEQ/L | TOTAL BILIRUBIN [1]: 0.37 mg/dL and 0.2 mg/dL | URIC ACID [1]: 0.73 mg/dL and 1.4 mg/dL | ABSOLUTE SEGMENTED NEUTROPHIL [2]: 3216.67 CELLS/uL | BASOPHIL [2]: 0.2% and 0% | EOSINOPHIL [2]: 0.33% and 0% | ERYTHROCYTE COUNT [2]: 6.81 x10E6/uL and 6.11 x10E6/uL | HEMATOCRIT [2]: 44.33% and 36.22% | HEMOGLOBIN [2]: 13.77 G/DL and 13.18 G/DL | LEUKOCYTE COUNT [2]: 11.2 x10E3/uL and 17.8 x10E3/uL | MEAN CORPUSCULAR HEMOGLOBIN [2]: 20.23 pg and 21.62 pg | MEAN CORPUSCULAR HEMOGLOBIN CONCENTRATION [2]: 31.03 G/DL and 36.42 G/DL | MEAN CORPUSCULAR VOLUME [2]: 65.1 fL and 59.37 fL | MONOCYTE [2]: 2.1% and 1.83% | NEUTROPHIL [2]: 16.43% and 17.67% | NUCLEATED RED BLOOD CELLS [2]: 0 /100WBC | PLATELET COUNT [2]: 1573.33 x10E3/uL and 1311 x10E3/uL | ALBUMIN [2]: 3.87 G/DL and 3.83 G/DL | ALKALINE PHOSPHATASE [2]: 303.67 u/L and 260.33 u/L | ASPARTATE AMINOTRANSFERASE [2]: 72.67 u/L and 76.17 u/L | BLOOD UREA NITROGEN [2]: 17.33 mg/dL and 14.67 mg/dL | CARBON DIOXIDE [2]: 41.33 mmol/L and 31.33 mmol/L | CHOLESTEROL [2]: 74.33 mg/dL and 75 mg/dL | CREATINE PHOSPHOKINASE [2]: 286.67 u/L | CREATININE [2]: 0.47 mg/dL and 0.16 mg/dL | GLUCOSE [2]: 152.33 mg/dL and 152.67 mg/dL | LACTATE DEHYDROGENASE [2]: 147.33 u/L | PHOSPHORUS [2]: 10 mg/dL and 10.97 mg/dL | POTASSIUM [2]: 6.4 MEQ/L and 6 MEQ/L | SODIUM [2]: 146 MEQ/L and 145.52 MEQ/L | TOTAL BILIRUBIN [2]: 0.43 mg/dL and 0.17 mg/dL | URIC ACID [2]: 0.83 mg/dL and 1.27 mg/dL | ABSOLUTE SEGMENTED NEUTROPHIL [3]: 2414 CELLS/uL | NUCLEATED RED BLOOD CELLS [3]: 0.17 /100WBC | CREATINE PHOSPHOKINASE [3]: 262 u/L | ABSOLUTE BASOPHIL [4]: 56.7 cells/µL | ABSOLUTE EOSINOPHIL [4]: 70 cells/µL | ABSOLUTE LYMPHOCYTE [4]: 10900 cells/µL | ABSOLUTE MONOCYTE [4]: 510 cells/µL | BASOPHIL [4]: 0.4% | EOSINOPHIL [4]: 0.5% | ERYTHROCYTE COUNT [4]: 6.47 x10E6/uL | HEMATOCRIT [4]: 44.43% | HEMOGLOBIN [4]: 13.53 G/DL | LEUKOCYTE COUNT [4]: 14.39 x10E3/uL | MEAN CORPUSCULAR HEMOGLOBIN [4]: 20.97 pg | MEAN CORPUSCULAR HEMOGLOBIN CONCENTRATION [4]: 30.53 G/DL | MEAN CORPUSCULAR VOLUME [4]: 68.7 fL | MONOCYTE [4]: 3.57% | NEUTROPHIL [4]: 18.63% | PLATELET COUNT [4]: 1360 x10E3/uL | ALBUMIN [4]: 3.77 G/DL | ALKALINE PHOSPHATASE [4]: 339 u/L | ASPARTATE AMINOTRANSFERASE [4]: 71.67 u/L | BLOOD UREA NITROGEN [4]: 19 mg/dL | CARBON DIOXIDE [4]: 41.33 mmol/L | CHOLESTEROL [4]: 91.67 mg/dL | CREATINE PHOSPHOKINASE [4]: 392.67 u/L | CREATININE [4]: 0.5 mg/dL | GLUCOSE [4]: 169.67 mg/dL | PHOSPHORUS [4]: 10.23 mg/dL | POTASSIUM [4]: 6.3 MEQ/L | SODIUM [4]: 150.67 MEQ/L | TOTAL BILIRUBIN [4]: 0.27 mg/dL | URIC ACID [4]: 0.93 mg/dL | ABSOLUTE BASOPHIL [5]: 43.3 cells/µL | ABSOLUTE EOSINOPHIL [5]: 36.7 cells/µL | ABSOLUTE LYMPHOCYTE [5]: 9260 cells/µL | ABSOLUTE MONOCYTE [5]: 340 cells/µL | BASOPHIL [5]: 0.33% | EOSINOPHIL [5]: 0.3% | ERYTHROCYTE COUNT [5]: 6.6 x10E6/uL | HEMATOCRIT [5]: 45.03% | HEMOGLOBIN [5]: 13.57 G/DL | LEUKOCYTE COUNT [5]: 12.59 x10E3/uL | MEAN CORPUSCULAR HEMOGLOBIN [5]: 20.53 pg | MEAN CORPUSCULAR HEMOGLOBIN CONCENTRATION [5]: 30.1 G/DL | MEAN CORPUSCULAR VOLUME [5]: 68.23 fL | MONOCYTE [5]: 2.7% | NEUTROPHIL [5]: 22.57% | PLATELET COUNT [5]: 1662.33 x10E3/uL | ALBUMIN [5]: 3.8 G/DL | ALKALINE PHOSPHATASE [5]: 329 u/L | ASPARTATE AMINOTRANSFERASE [5]: 76.33 u/L | BLOOD UREA NITROGEN [5]: 17.67 mg/dL | CARBON DIOXIDE [5]: 41 mmol/L | CHOLESTEROL [5]: 86.33 mg/dL | CREATINE PHOSPHOKINASE [5]: 239.67 u/L | CREATININE [5]: 0.5 mg/dL | GLUCOSE [5]: 171.33 mg/dL | PHOSPHORUS [5]: 9.77 mg/dL | POTASSIUM [5]: 5.87 MEQ/L | SODIUM [5]: 152 MEQ/L | TOTAL BILIRUBIN [5]: 0.3 mg/dL | URIC ACID [5]: 1.33 mg/dL | ABSOLUTE BASOPHIL [6]: 40 cells/µL | ABSOLUTE EOSINOPHIL [6]: 62 cells/µL
